Several values for one entry are separate records, joined by “and”; a condition that tells them apart may be missing. Equal entries are not always repeated. Inconclusive results and toxic doses are left out.
System: L1210 leukemia ip in BDF1 mice, survival T/C
Assay: NCI In Vivo Anticancer Drug Screen. Data for tumor model L1210 Leukemia (intraperitoneal) in B6D2F1 (BDF1) mice
Settings: endpoint: mean survival time, higher = longer survival
Summary of the method: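 Transplanted-tumor mice were given test agent; controls received vehicle only. Survival readings from the two groups were divided (treated over control).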

[1] = dose: 100.0 mg/kg/injection, schedule: Q04DX003 (ip), vehicle: saline
[2] = dose: 100.0 mg/kg/injection, schedule: Q04DX003 (ip), vehicle: Klucel (hydroxypropylcellulose) (HPC)
[3] = dose: 200.0 mg/kg/injection, schedule: Q04DX003 (ip), vehicle: Klucel (hydroxypropylcellulose) (HPC)
[4] = dose: 400.0 mg/kg/injection, schedule: Q04DX003 (ip), vehicle: Klucel (hydroxypropylcellulose) (HPC)
[5] = dose: 100.0 mg/kg/injection, schedule: Q04DX003 (ip), vehicle: saline with Tween-80
[6] = dose: 200.0 mg/kg/injection, schedule: Q04DX003 (ip), vehicle: saline with Tween-80
[7] = dose: 100.0 mg/kg/injection, schedule: Q01DX001 (ip), vehicle: carboxymethylcellulose (CMC)
[8] = dose: 200.0 mg/kg/injection, schedule: Q01DX001 (ip), vehicle: carboxymethylcellulose (CMC)
[9] = dose: 400.0 mg/kg/injection, schedule: Q01DX001 (ip), vehicle: carboxymethylcellulose (CMC)
[10] = dose: 100.0 mg/kg/injection, schedule: Q01DX001 (ip), vehicle: Klucel (hydroxypropylcellulose) (HPC)
[11] = dose: 200.0 mg/kg/injection, schedule: Q01DX001 (ip), vehicle: Klucel (hydroxypropylcellulose) (HPC)

## c1ccc2c(c1)CNCc1ccccc1-2
dose: 25.0 mg/kg/injection, schedule: Q01DX009 (ip), vehicle: saline
  T/C: 92 % of control
dose: 50.0 mg/kg/injection, schedule: Q01DX009 (ip), vehicle: saline
  T/C: 105 % of control
dose: 100.0 mg/kg/injection, schedule: Q01DX009 (ip), vehicle: saline
  T/C: 96 % of control
[1]
  T/C: 105 % of control

## CCCCCCCCCCCCCCCC1=NN(c2ccccc2)C(=O)C1N=Nc1ccccc1 (stereo not given)
[2]
  T/C: 102 % of control
[3]
  T/C: 98 % of control
[4]
  T/C: 94 % of control

## CC(C)CCCC(C)C1CCC2C3CCC45CC4C(=O)CCC5(C)C3CCC12C (stereo not given)
dose: 100.0 mg/kg/injection, schedule: Q01DX009 (ip), vehicle: acetone
  T/C: 87 % of control and 96 % of control
dose: 200.0 mg/kg/injection, schedule: Q01DX009 (ip), vehicle: acetone
  T/C: 103 % of control
dose: 400.0 mg/kg/injection, schedule: Q01DX009 (ip), vehicle: acetone
  T/C: 89 % of control and 94 % of control

## CC(CN(C)C)CN1c2ccccc2C(C)(C)c2ccccc21 (stereo not given)
dose: 13.8 mg/kg/injection, schedule: Q01DX001 (ip), vehicle: water
  T/C: 101 % of control
dose: 27.5 mg/kg/injection, schedule: Q01DX001 (ip), vehicle: water
  T/C: 104 % of control
dose: 45.0 mg/kg/injection, schedule: Q01DX001 (ip), vehicle: water
  T/C: 98 % of control
dose: 50.0 mg/kg/injection, schedule: Q01DX001 (ip), vehicle: water
  T/C: 91 % of control
dose: 100.0 mg/kg/injection, schedule: Q01DX001 (ip), vehicle: water
  T/C: 91 % of control
dose: 200.0 mg/kg/injection, schedule: Q01DX001 (ip), vehicle: water
  T/C: 91 % of control
dose: 400.0 mg/kg/injection, schedule: Q01DX001 (ip), vehicle: water
  T/C: 97 % of control

## CCOP(=O)(CC)C(Cl)(Cl)Cl (stereo not given)
dose: 100.0 mg/kg/injection, schedule: Q04DX002 (ip), vehicle: saline with Tween-80
  T/C: 93 % of control
dose: 200.0 mg/kg/injection, schedule: Q04DX002 (ip), vehicle: saline with Tween-80
  T/C: 90 % of control
dose: 400.0 mg/kg/injection, schedule: Q04DX002 (ip), vehicle: saline with Tween-80
  T/C: 93 % of control

## O=c1[nH]c2ccccc2c2ccccc12
[5]
  T/C: 92 % of control
[6]
  T/C: 97 % of control
dose: 400.0 mg/kg/injection, schedule: Q04DX003 (ip), vehicle: saline with Tween-80
  T/C: 95 % of control

## O=C(COc1ccccc1)N(O)c1ccc(/C=C/c2ccccc2)cc1
[7]
  T/C: 93 % of control
[8]
  T/C: 95 % of control
[9]
  T/C: 88 % of control

## O=C1CCC(OC(=O)c2ccccc2)CCN1 (stereo not given)
dose: 100.0 mg/kg/injection, schedule: Q01DX001 (ip), vehicle: acetone
  T/C: 102 % of control
dose: 200.0 mg/kg/injection, schedule: Q01DX001 (ip), vehicle: acetone
  T/C: 96 % of control
dose: 400.0 mg/kg/injection, schedule: Q01DX001 (ip), vehicle: acetone
  T/C: 94 % of control

## O=S(=O)(O)SCCCNc1ncnc2ccccc12
[7]
  T/C: 107 % of control
[8]
  T/C: 105 % of control
[9]
  T/C: 102 % of control

## Nc1ncnc2nc(-c3ccc(-c4ccccc4)cc3)[nH]c12
dose: 50.0 mg/kg/injection, schedule: Q01DX001 (ip), vehicle: Klucel (hydroxypropylcellulose) (HPC)
  T/C: 92 % of control
[10]
  T/C: 88 % of control
[11]
  T/C: 97 % of control

## Nc1nc(N)c2c(Cl)c(CNc3ccc(Cl)c(Cl)c3)ccc2n1
dose: 6.25 mg/kg/injection, schedule: Q01DX009 (ip), vehicle: water
  T/C: 124 % of control
dose: 12.5 mg/kg/injection, schedule: Q01DX009 (ip), vehicle: saline with Tween-80
  T/C: 158 % of control
dose: 50.0 mg/kg/injection, schedule: Q01DX009 (ip), vehicle: saline with Tween-80
  T/C: 119 % of control
dose: 50.0 mg/kg/injection, schedule: Q01DX009 (ip), vehicle: water
  T/C: 93 % of control and 110 % of control
dose: 50.0 mg/kg/injection, schedule: Q04DX003 (ip), vehicle: water
  T/C: 107 % of control
dose: 100.0 mg/kg/injection, schedule: Q01DX009 (ip), vehicle: saline with Tween-80
  T/C: 91 % of control
dose: 100.0 mg/kg/injection, schedule: Q01DX009 (ip), vehicle: water
  T/C: 86 % of control
dose: 100.0 mg/kg/injection, schedule: Q04DX003 (ip), vehicle: water
  T/C: 124 % of control
dose: 400.0 mg/kg/injection, schedule: Q04DX003 (ip), vehicle: water
  T/C: 113 % of control
dose: 600.0 mg/kg/injection, schedule: Q04DX003 (ip), vehicle: water
  T/C: 97 % of control

## Cl/N=C(/c1ccccc1)c1ccc(Cl)cc1
[2]
  T/C: 105 % of control
[3]
  T/C: 102 % of control
[4]
  T/C: 104 % of control

## CCC[CH2][Hg][O]C(C)=O
dose: 3.13 mg/kg/injection, schedule: Q01DX009 (ip), vehicle: saline sonified
  T/C: 89 % of control
dose: 6.25 mg/kg/injection, schedule: Q01DX009 (ip), vehicle: saline sonified
  T/C: 89 % of control
dose: 6.25 mg/kg/injection, schedule: Q04DX003 (ip), vehicle: Klucel (hydroxypropylcellulose) (HPC)
  T/C: 100 % of control
dose: 12.5 mg/kg/injection, schedule: Q01DX009 (ip), vehicle: saline sonified
  T/C: 87 % of control
dose: 12.5 mg/kg/injection, schedule: Q04DX003 (ip), vehicle: Klucel (hydroxypropylcellulose) (HPC)
  T/C: 92 % of control

## Nc1ncnc2nc(-c3cc(Cl)c(OCc4ccccc4)c(Cl)c3)[nH]c12
[10]
  T/C: 100 % of control
[11]
  T/C: 89 % of control
dose: 400.0 mg/kg/injection, schedule: Q01DX001 (ip), vehicle: Klucel (hydroxypropylcellulose) (HPC)
  T/C: 92 % of control

## OC(CN(CCCl)CCCl)C(O)C(O)C(O)CN(CCCl)CCCl (stereo not given)
dose: 0.06 mg/kg/injection, schedule: Q01DX Z (ip), vehicle: saline
  T/C: 102 % of control
dose: 0.1 mg/kg/injection, schedule: Q01DX Z (ip), vehicle: saline
  T/C: 102 % of control
dose: 0.15 mg/kg/injection, schedule: Q01DX Z (ip), vehicle: saline
  T/C: 105 % of control
dose: 0.23 mg/kg/injection, schedule: Q01DX Z (ip), vehicle: saline
  T/C: 110 % of control
dose: 0.25 mg/kg/injection, schedule: Q01DX Z (ip), vehicle: saline
  T/C: 103 % of control
dose: 0.35 mg/kg/injection, schedule: Q01DX001 (ip), vehicle: saline
  T/C: 150 % of control
dose: 0.6 mg/kg/injection, schedule: Q01DX Z (ip), vehicle: carboxymethylcellulose (CMC)
  T/C: 108 % of control
dose: 0.8 mg/kg/injection, schedule: Q01DX001 (ip), vehicle: saline
  T/C: 154 % of control
dose: 0.8 mg/kg/injection, schedule: Q01DX Z (ip), vehicle: saline
  T/C: 153 % of control and 170 % of control
dose: 0.9 mg/kg/injection, schedule: Q01DX Z (ip), vehicle: carboxymethylcellulose (CMC)
  T/C: 102 % of control
dose: 1.0 mg/kg/injection, schedule: Q01DX001 (ip), vehicle: saline
  T/C: 122 % of control
dose: 1.35 mg/kg/injection, schedule: Q01DX Z (ip), vehicle: carboxymethylcellulose (CMC)
  T/C: 96 % of control
dose: 1.9 mg/kg/injection, schedule: Q01DX001 (ip), vehicle: saline
  T/C: 158 % of control
dose: 2.0 mg/kg/injection, schedule: Q01DX001 (ip), vehicle: saline
  T/C: 174 % of control
dose: 2.0 mg/kg/injection, schedule: Q01DX Z (ip), vehicle: saline
  T/C: 155 % of control and 188 % of control
dose: 2.03 mg/kg/injection, schedule: Q01DX Z (ip), vehicle: carboxymethylcellulose (CMC)
  T/C: 118 % of control
dose: 4.0 mg/kg/injection, schedule: Q01DX001 (ip), vehicle: saline
  T/C: 152 % of control
dose: 4.0 mg/kg/injection, schedule: Q01DX Z (ip), vehicle: saline
  T/C: 117 % of control
dose: 5.0 mg/kg/injection, schedule: Q01DX001 (ip), vehicle: saline
  T/C: 194 % of control
dose: 6.7 mg/kg/injection, schedule: Q01DX Z (ip), vehicle: saline
  T/C: 118 % of control
dose: 8.0 mg/kg/injection, schedule: Q01DX001 (ip), vehicle: saline
  T/C: 97 % of control

## COc1ccc(OC)c(NC(=O)CS)c1
[5]
  T/C: 97 % of control
[6]
  T/C: 91 % of control

## CN1C(=O)CCC1=O
[1]
  T/C: 103 % of control
dose: 200.0 mg/kg/injection, schedule: Q04DX003 (ip), vehicle: saline
  T/C: 98 % of control
dose: 400.0 mg/kg/injection, schedule: Q04DX003 (ip), vehicle: saline
  T/C: 98 % of control

## CCOC(=O)c1ccc(NP(=O)(Nc2ccc(C(=O)OCC)cc2)c2ccc([N+](=O)[O-])cc2)cc1
dose: 100.0 mg/kg/injection, schedule: Q04DX003 (ip), vehicle: acetone
  T/C: 87 % of control
dose: 200.0 mg/kg/injection, schedule: Q04DX003 (ip), vehicle: acetone
  T/C: 95 % of control
dose: 400.0 mg/kg/injection, schedule: Q04DX003 (ip), vehicle: acetone
  T/C: 95 % of control

Source: PubChem BioAssay AID248 (DTP/NCI, 2004)
